In patent publication US10800791B2, “Triazole ACC inhibitors and uses thereof” (Gilead Apollo, LLC, priority 2015, dated 2020):
Converted amounts (≈) assume the structure as drawn. Like-named read-outs stand apart in the source and are kept apart here.

Legend:
[1] = test system: Fusarium virguliforme (Fv); assay: Growth inhibition assay of fungal pathogens, Fv; format: cell-based; settings: 48 h
Summary of the method: (§1)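 Spores from sub-cultured plates were diluted in 17% V8 liquid medium and exposed to compound from DMSO stocks at final concentrations of 50, 10 and 2 ppm or 2, 0.4 and 0.08 ppm. OD600 and visual ratings at 48 h were compared with the 2% DMSO control to give percent growth inhibition.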

Botrtyis cinerea (Bc) = assay: Growth inhibition assay of fungal pathogens, Bc; format: cell-based; settings: 48 h
Summary of the method: as §1

[2] = test system: Fusarium moniliforme (Fm); assay: Growth inhibition assay of fungal pathogens, Fm; format: cell-based; settings: for IC90: Fusarium verticillioides, 48 h, read-out: Concentration at 90% Inhibition Fm
Summary of the method: as §1

C. parapsilosis = assay: Antifungal Activity Assay (broth microtiter MIC), C. parapsilosis; format: cell-based, Candida parapsilosis; settings: Lodderomyces parapsilosis, ATCC22019, 48 h
Summary of the method: (§2)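 MIC read by eye at 48 h, comparing challenged wells with the growth control. Yeasts grown overnight on Sabouraud dextrose agar at 35° C, suspended in RPMI 1640+MOPS and added at 2.5×10^3 CFU/mL final, following CLSI M27-A3.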

Rhizoctonia solani (Rs) = assay: Growth inhibition assay of fungal pathogens, Rs; format: cell-based; settings: 48 h
human (hACC2) = human (hACC2) (Homo sapiens, UniProt O00763); assay: In vitro ACC inhibition assay (ADP-Glo), hACC2; format: biochemical; settings: 5 nM ACC2, 20 μM ATP, 20 μM acetyl-CoA
Experimental: The detailed procedure is as follows. […] 10 μL ADP glo reagent was added. […] 20 μL kinase detection reagent was added.

fungal (fACC2) = fungal (fACC2) (UniProt Q00955); settings: read-out: fACC2 (in vitro ACC2 Inhibition Assay, IC50), ADP-Glo, 5 nM ACC2, 20 μM ATP, 20 μM acetyl-CoA
C. albicans = assay: Antifungal Activity Assay (broth microtiter MIC), C. albicans; format: cell-based, Candida albicans; settings: Candida albicans, ATCC90028, 48 h
Summary of the method: as §2

Septoria tritici (St) = assay: Growth inhibition assay of fungal pathogens, St; format: cell-based; settings: Zymoseptoria tritici, 48 h
Summary of the method: as §1

Diplodia maydis (Dm) = assay: Growth inhibition assay of fungal pathogens, Dm; format: cell-based; settings: Stenocarpella maydis, 48 h
Summary of the method: as §1

[3] = growth inhibition at 48 hours vs 2% DMSO control, read-out: Concentration at 90% Inhibition Fv
[4] = growth inhibition vs 2% DMSO control at 48 hours, read-out: Concentration at 90% Inhibition Fv
[5] = Botrtyis cinerea, growth inhibition at 48 hours vs 2% DMSO control, read-out: Concentration at 90% Inhibition Bc
[6] = Botrtyis cinerea, growth inhibition vs 2% DMSO control at 48 hours, read-out: Concentration at 90% Inhibition Bc
[7] = Fusarium moniliforme, growth inhibition at 48 hours vs 2% DMSO control
[8] = Fusarium moniliforme, growth inhibition vs 2% DMSO control at 48 hours
[9] = Table 3a, ATCC 22019, 3 replicates, MIC recorded at 48 h, read-out: MIC, C. parapsilosis ATCC 22019
[10] = Table 3b (additional results), ATCC 22019, 3 replicates, MIC recorded at 48 h, read-out: MIC, C. parapsilosis ATCC 22019
[11] = mycelial plugs, growth inhibition at 48 hours vs 2% DMSO control, read-out: Concentration at 90% Inhibition Rs
[12] = mycelial plugs, growth inhibition vs 2% DMSO control at 48 hours, read-out: Concentration at 90% Inhibition Rs
[13] = Table 3a, ATCC 90028, 3 replicates, MIC recorded at 48 h, read-out: MIC, C. albicans ATCC 90028
[14] = Table 3b (additional results), ATCC 90028, 3 replicates, MIC recorded at 48 h, read-out: MIC, C. albicans ATCC 90028
[15] = Septoria tritici, growth inhibition at 48 hours vs 2% DMSO control, read-out: Concentration at 90% Inhibition St
[16] = Septoria tritici, growth inhibition vs 2% DMSO control at 48 hours, read-out: Concentration at 90% Inhibition St
[17] = Diplodia maydis, growth inhibition at 48 hours vs 2% DMSO control, read-out: Concentration at 90% Inhibition Dm
[18] = Diplodia maydis, growth inhibition vs 2% DMSO control at 48 hours, read-out: Concentration at 90% Inhibition Dm

fungal (fACC2), sequence (Q00955 whole entry): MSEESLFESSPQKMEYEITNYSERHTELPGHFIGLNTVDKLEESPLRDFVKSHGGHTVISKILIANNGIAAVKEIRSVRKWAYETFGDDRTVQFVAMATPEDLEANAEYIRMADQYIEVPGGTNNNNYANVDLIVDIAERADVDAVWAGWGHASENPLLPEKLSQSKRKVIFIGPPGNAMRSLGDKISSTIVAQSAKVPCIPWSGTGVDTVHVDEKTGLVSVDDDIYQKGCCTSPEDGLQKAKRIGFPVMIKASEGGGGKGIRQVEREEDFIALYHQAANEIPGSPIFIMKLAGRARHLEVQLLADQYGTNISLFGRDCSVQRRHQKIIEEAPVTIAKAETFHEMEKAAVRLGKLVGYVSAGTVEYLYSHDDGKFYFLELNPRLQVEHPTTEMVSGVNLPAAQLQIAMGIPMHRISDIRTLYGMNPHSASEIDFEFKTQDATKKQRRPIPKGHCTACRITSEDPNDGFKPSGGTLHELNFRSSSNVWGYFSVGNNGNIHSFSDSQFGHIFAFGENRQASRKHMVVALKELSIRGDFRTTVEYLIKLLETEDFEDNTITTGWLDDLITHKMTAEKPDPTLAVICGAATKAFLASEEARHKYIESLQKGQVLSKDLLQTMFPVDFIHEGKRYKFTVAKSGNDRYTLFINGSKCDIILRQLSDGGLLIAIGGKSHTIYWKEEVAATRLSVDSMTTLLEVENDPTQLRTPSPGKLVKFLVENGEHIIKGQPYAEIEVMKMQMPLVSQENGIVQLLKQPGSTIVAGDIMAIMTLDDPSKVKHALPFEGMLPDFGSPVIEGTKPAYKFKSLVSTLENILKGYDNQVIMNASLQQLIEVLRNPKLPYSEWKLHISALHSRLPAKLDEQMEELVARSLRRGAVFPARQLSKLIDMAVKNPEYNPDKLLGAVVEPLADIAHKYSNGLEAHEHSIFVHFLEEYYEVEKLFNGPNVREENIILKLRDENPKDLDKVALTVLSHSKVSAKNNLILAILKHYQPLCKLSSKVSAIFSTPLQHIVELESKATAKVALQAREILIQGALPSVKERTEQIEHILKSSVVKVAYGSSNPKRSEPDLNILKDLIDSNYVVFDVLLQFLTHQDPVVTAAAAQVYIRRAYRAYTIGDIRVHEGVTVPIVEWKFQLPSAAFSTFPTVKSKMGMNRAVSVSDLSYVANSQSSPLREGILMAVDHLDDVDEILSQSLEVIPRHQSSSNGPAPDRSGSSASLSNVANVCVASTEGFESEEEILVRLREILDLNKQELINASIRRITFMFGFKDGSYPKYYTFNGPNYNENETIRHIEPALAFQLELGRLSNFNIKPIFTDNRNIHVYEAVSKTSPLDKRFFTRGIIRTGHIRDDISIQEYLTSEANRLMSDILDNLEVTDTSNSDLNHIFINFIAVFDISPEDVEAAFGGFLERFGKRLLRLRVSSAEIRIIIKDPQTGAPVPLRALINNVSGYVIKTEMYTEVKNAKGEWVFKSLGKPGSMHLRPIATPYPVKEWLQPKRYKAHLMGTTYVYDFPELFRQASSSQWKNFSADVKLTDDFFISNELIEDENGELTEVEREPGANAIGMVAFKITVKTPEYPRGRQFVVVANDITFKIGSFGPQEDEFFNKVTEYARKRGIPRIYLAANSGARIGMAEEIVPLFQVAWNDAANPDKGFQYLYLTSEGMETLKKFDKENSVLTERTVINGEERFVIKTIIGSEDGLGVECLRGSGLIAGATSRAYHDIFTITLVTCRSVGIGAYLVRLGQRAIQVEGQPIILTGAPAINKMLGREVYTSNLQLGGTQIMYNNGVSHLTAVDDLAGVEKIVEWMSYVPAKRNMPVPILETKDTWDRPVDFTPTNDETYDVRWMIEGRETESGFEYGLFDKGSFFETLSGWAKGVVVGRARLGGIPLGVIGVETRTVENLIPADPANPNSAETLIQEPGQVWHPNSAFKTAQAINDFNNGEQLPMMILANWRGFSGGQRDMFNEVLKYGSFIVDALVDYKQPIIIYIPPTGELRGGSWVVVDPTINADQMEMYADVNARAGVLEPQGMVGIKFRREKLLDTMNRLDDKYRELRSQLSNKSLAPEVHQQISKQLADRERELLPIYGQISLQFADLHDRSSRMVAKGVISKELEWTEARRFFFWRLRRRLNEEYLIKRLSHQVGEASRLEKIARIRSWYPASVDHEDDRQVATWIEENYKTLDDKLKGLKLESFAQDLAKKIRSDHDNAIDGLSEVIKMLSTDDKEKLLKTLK
human (hACC2), sequence (O00763 whole entry): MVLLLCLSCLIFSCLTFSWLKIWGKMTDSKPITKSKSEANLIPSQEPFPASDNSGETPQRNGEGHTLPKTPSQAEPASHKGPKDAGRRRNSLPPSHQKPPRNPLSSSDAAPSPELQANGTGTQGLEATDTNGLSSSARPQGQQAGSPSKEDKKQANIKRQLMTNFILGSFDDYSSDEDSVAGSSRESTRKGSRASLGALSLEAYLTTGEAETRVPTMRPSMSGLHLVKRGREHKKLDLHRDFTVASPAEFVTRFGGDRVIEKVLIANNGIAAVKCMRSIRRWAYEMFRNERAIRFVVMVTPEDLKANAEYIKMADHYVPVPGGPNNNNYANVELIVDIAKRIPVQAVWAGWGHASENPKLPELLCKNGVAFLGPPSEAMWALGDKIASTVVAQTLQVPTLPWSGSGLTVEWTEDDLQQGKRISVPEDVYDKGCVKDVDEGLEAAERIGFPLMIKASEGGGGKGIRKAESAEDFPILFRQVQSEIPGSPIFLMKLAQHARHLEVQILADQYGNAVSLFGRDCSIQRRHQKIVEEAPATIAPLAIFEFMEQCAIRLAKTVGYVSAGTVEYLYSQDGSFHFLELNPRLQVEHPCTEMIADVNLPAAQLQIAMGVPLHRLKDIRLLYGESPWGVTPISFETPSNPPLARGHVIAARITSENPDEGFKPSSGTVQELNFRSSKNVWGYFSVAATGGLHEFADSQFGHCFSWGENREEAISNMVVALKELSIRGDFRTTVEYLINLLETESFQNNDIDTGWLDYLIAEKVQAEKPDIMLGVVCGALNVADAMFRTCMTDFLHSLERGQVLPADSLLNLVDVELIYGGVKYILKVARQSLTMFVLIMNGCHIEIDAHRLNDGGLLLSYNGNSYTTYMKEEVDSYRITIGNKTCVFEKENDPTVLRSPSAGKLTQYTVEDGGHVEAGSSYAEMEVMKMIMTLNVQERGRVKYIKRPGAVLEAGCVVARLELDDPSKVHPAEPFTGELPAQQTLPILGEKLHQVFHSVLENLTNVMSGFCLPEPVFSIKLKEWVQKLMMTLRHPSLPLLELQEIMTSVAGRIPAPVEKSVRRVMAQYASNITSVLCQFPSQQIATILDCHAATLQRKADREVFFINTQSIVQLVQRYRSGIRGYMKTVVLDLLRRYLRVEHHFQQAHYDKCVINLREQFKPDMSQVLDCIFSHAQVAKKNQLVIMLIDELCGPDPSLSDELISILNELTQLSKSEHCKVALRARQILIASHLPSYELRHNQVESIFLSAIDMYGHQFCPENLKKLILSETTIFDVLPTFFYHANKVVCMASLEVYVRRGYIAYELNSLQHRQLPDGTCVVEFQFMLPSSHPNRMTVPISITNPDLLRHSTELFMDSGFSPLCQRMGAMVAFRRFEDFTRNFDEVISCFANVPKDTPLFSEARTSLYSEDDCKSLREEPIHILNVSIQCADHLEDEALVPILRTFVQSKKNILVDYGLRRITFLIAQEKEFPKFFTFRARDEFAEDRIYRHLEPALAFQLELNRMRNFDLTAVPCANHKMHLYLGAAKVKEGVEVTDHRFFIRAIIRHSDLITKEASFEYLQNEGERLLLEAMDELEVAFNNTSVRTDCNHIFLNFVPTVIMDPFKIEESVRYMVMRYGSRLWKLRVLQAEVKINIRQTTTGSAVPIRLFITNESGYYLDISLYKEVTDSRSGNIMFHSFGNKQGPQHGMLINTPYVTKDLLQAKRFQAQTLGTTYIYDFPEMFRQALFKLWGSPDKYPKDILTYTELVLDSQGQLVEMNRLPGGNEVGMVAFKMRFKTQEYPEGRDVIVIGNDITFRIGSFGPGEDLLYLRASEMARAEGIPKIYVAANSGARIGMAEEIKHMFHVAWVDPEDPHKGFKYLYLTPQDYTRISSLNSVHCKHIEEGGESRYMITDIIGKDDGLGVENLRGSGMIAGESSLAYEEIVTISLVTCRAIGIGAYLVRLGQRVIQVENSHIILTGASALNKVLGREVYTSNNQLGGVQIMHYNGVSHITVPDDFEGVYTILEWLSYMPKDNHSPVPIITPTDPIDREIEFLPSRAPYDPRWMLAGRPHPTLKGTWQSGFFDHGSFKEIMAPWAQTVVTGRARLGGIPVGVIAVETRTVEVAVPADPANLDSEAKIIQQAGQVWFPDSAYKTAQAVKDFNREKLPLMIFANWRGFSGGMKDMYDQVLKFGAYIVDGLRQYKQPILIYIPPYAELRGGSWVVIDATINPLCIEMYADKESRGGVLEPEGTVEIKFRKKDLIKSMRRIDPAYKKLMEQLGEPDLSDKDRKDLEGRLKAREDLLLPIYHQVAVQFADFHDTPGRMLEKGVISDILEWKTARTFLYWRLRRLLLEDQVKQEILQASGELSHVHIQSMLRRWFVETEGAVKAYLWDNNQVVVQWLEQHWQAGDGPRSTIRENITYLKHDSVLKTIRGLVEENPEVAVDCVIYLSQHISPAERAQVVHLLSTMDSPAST

| SMILES | IC90 [1, 3] | IC90 [1, 4] | IC90 (Botrtyis cinerea (Bc); [5]) | IC90 (Botrtyis cinerea (Bc); [6]) | IC90 [2, 7] | IC90 [2, 8] | MIC (C. parapsilosis; [9]) | MIC (C. parapsilosis; [10]) | IC90 (Rhizoctonia solani (Rs); [11]) | IC90 (Rhizoctonia solani (Rs); [12]) | IC50 (human (hACC2); Table 2a) | IC50 (human (hACC2); Table 2b, additional results) | IC50 (fungal (fACC2); Table 2a) | IC50 (fungal (fACC2); Table 2b, additional results) | MIC (C. albicans; [13]) | MIC (C. albicans; [14]) | IC90 (Septoria tritici (St); [15]) | IC90 (Septoria tritici (St); [16]) | IC90 (Diplodia maydis (Dm); [17]) | IC90 (Diplodia maydis (Dm); [18]) | other results |
| --- | --- | --- | --- | --- | --- | --- | --- | --- | --- | --- | --- | --- | --- | --- | --- | --- | --- | --- | --- | --- | --- |
| COc1ccc(F)cc1[C@H](Cn1c(=O)n(C(C)(C)C(=O)N2CC=CC2)c(=O)c2c(C)c(-n3nccn3)sc21)OC[C@@H](C)O [Compound I-63, 3-(1-(2,5-dihydro-1H-pyrrol-1-yl)-2-methyl-1-oxopropan-2-yl)-1-((R)-2-(5-fluoro-2-methoxyphenyl)-2-((R)-2-hydroxypropoxy)ethyl)-5-methyl-6-(2H-1,2,3-triazol-2-yl)thieno[2,3-d]pyrimidine-2,4(1H,3H)-dione] | 0.4 µg/mL (≈ 0.653 µM) | 0.4 µg/mL (≈ 0.653 µM) | 2 µg/mL (≈ 3.26 µM) | 2 µg/mL (≈ 3.26 µM) | 0.08 µg/mL (≈ 0.131 µM) | 0.08 µg/mL (≈ 0.131 µM) | 1.1 to 2 µg/mL (≈ 1.8 to 3.26 µM) | 2.01 to 4 µg/mL (≈ 3.28 to 6.53 µM) | 0.4 µg/mL (≈ 0.653 µM) | 0.4 µg/mL (≈ 0.653 µM) | 5 to 10 nM | 5 to 10 nM | 0.4 to 1 nM | 0.3 to 1 nM | 0.25 to 1 µg/mL (≈ 0.408 to 1.63 µM) | 1.01 to 2 µg/mL (≈ 1.65 to 3.26 µM) | > 50 µg/mL | > 50 µg/mL | 2 µg/mL (≈ 3.26 µM) | 2 µg/mL (≈ 3.26 µM) | – |
| COCCO[C@@H](Cn1c(=O)n(C(C)C(=O)N2CCCC2)c(=O)c2c(C)c(-n3nccn3)sc21)c1cc(F)ccc1OC (stereo partly drawn) [Compound I-64, 1-((R)-2-(5-fluoro-2-methoxyphenyl)-2-(2-methoxy-ethoxy)ethyl)-5-methyl-3-(1-oxo-1-(pyrrolidin-1-yl)propan-2-yl)-6-(2H-1,2,3-triazol-2-yl)thieno[2,3-d]pyrimidine-2,4(1H,3H)-dione] | 0.4 µg/mL (≈ 0.666 µM) | 0.4 µg/mL (≈ 0.666 µM) | 2 µg/mL (≈ 3.33 µM) | 2 µg/mL (≈ 3.33 µM) | 0.4 µg/mL (≈ 0.666 µM) | 0.4 µg/mL (≈ 0.666 µM) | 2.1 to 4 µg/mL (≈ 3.5 to 6.66 µM) | 1.01 to 2 µg/mL (≈ 1.68 to 3.33 µM) | 2 µg/mL (≈ 3.33 µM) | 2 µg/mL (≈ 3.33 µM) | 10 to 40 nM | 10 to 40 nM | 1 to 5 nM | 1 to 5 nM | 2.1 to 4 µg/mL (≈ 3.5 to 6.66 µM) | 2.01 to 4 µg/mL (≈ 3.35 to 6.66 µM) | > 50 µg/mL | > 50 µg/mL | 10 µg/mL (≈ 16.6 µM) | > 50 µg/mL | – |
| COCCO[C@@H](Cn1c(=O)n([C@H](C)C(=O)N2CCCC2)c(=O)c2c(C)c(-n3nccn3)sc21)c1cc(F)ccc1OC [Compound I-65, 1-((R)-2-(5-fluoro-2-methoxyphenyl)-2-(2-methoxy-ethoxy)ethyl)-5-methyl-3-((R)-1-oxo-1-(pyrrolidin-1-yl)propan-2-yl)-6-(2H-1,2,3-triazol-2-yl)thieno[2,3-d]pyrimidine-2,4(1H,3H)-dione] | 0.4 µg/mL (≈ 0.666 µM) | 0.4 µg/mL (≈ 0.666 µM) | 2 µg/mL (≈ 3.33 µM) | 2 µg/mL (≈ 3.33 µM) | 0.4 µg/mL (≈ 0.666 µM) | 0.4 µg/mL (≈ 0.666 µM) | 2.1 to 4 µg/mL (≈ 3.5 to 6.66 µM) | 1.01 to 2 µg/mL (≈ 1.68 to 3.33 µM) | 2 µg/mL (≈ 3.33 µM) | 2 µg/mL (≈ 3.33 µM) | 10 to 40 nM | 10 to 40 nM | 0.4 to 1 nM | 0.3 to 1 nM | 2.1 to 4 µg/mL (≈ 3.5 to 6.66 µM) | 2.01 to 4 µg/mL (≈ 3.35 to 6.66 µM) | > 50 µg/mL | > 50 µg/mL | 10 µg/mL (≈ 16.6 µM) | > 50 µg/mL | – |
| COCCCO[C@@H](Cn1c(=O)n(C(C)(C)C(=O)N2CCCC2)c(=O)c2c(C)c(-n3nccn3)sc21)c1cc(F)ccc1OC [Compound I-68, (R)-1-(2-(5-fluoro-2-methoxyphenyl)-2-(3-methoxy-propoxy)ethyl)-5-methyl-3-(2-methyl-1-oxo-1-(pyrrolidin-1-yl)propan-2-yl)-6-(2H-1,2,3-triazol-2-yl)thieno[2,3-d]pyrimidine-2,4(1H,3H)-dione] | 0.4 µg/mL (≈ 0.636 µM) | 0.4 µg/mL (≈ 0.636 µM) | 2 µg/mL (≈ 3.18 µM) | 2 µg/mL (≈ 3.18 µM) | 0.08 µg/mL (≈ 0.127 µM) | 0.08 µg/mL (≈ 0.127 µM) | – | 1.01 to 2 µg/mL (≈ 1.61 to 3.18 µM) | 0.4 µg/mL (≈ 0.636 µM) | 0.4 µg/mL (≈ 0.636 µM) | 5 to 10 nM | 5 to 10 nM | 1 to 5 nM | 1 to 5 nM | – | 2.01 to 4 µg/mL (≈ 3.2 to 6.36 µM) | > 50 µg/mL | > 50 µg/mL | 2 µg/mL (≈ 3.18 µM) | 2 µg/mL (≈ 3.18 µM) | – |
| COCCCO[C@@H](Cn1c(=O)n(C(C)(C)C(=O)NC(C)C)c(=O)c2c(C)c(-n3nccn3)sc21)c1cc(F)ccc1OC [Compound I-69, (R)-2-(1-(2-(5-fluoro-2-methoxyphenyl)-2-(3-methoxy-propoxy)ethyl)-5-methyl-2,4-dioxo-6-(2H-1,2,3-triazol-2-yl)-1,4-dihydrothieno[2,3-d]pyrimidin-3(2H)-yl)-N-isopropyl-2-methylpropanamide] | – | – | – | – | – | – | – | – | – | – | 5 to 10 nM | 5 to 10 nM | 0.4 to 1 nM | 0.3 to 1 nM | – | – | – | – | – | – | IC90 ([1]; read-out: Concentration at 90% Inhibition Fv, Fusarium virguliforme, growth inhibition at 48 hours vs 2% DMSO control): 0.08 µg/mL (≈ 0.13 µM); IC90 ([1]; read-out: Concentration at 90% Inhibition Fv, Fusarium virguliforme, growth inhibition vs 2% DMSO control at 48 hours): 0.08 µg/mL (≈ 0.13 µM); IC90 (Botrtyis cinerea (Bc); read-out: Concentration at 90% Inhibition Bc, Botrtyis cinerea, growth inhibition at 48 hours vs 2% DMSO control): 0.4 µg/mL (≈ 0.649 µM); IC90 (Botrtyis cinerea (Bc); read-out: Concentration at 90% Inhibition Bc, Botrtyis cinerea, growth inhibition vs 2% DMSO control at 48 hours): 0.4 µg/mL (≈ 0.649 µM); Concentration at 90% Inhibition Fm [2, 7]: AA (compound concentration of 0.08 ppm at 90% inhibition of fungal pathogens); IC90 [2]: 0.08 µg/mL (≈ 0.13 µM); MIC (C. parapsilosis; read-out: MIC, C. parapsilosis ATCC 22019, Table 3b (additional results), 3 replicates, MIC recorded at 48 h): 0.25 to 1 µg/mL (≈ 0.405 to 1.62 µM); IC90 (Rhizoctonia solani (Rs); read-out: Concentration at 90% Inhibition Rs, Rhizoctonia solani, mycelial plugs, growth inhibition at 48 hours vs 2% DMSO control): 0.4 µg/mL (≈ 0.649 µM); IC90 (Rhizoctonia solani (Rs); read-out: Concentration at 90% Inhibition Rs, Rhizoctonia solani, mycelial plugs, growth inhibition vs 2% DMSO control at 48 hours): 0.4 µg/mL (≈ 0.649 µM); MIC (C. albicans; read-out: MIC, C. albicans ATCC 90028, Table 3b (additional results), 3 replicates, MIC recorded at 48 h): 1.01 to 2 µg/mL (≈ 1.64 to 3.24 µM); IC90 (Septoria tritici (St); read-out: Concentration at 90% Inhibition St, Septoria tritici, growth inhibition at 48 hours vs 2% DMSO control): 10 µg/mL (≈ 16.2 µM); IC90 (Septoria tritici (St); read-out: Concentration at 90% Inhibition St, Septoria tritici, growth inhibition vs 2% DMSO control at 48 hours): > 50 µg/mL; IC90 (Diplodia maydis (Dm); read-out: Concentration at 90% Inhibition Dm, Diplodia maydis, growth inhibition at 48 hours vs 2% DMSO control): 0.08 µg/mL (≈ 0.13 µM); IC90 (Diplodia maydis (Dm); read-out: Concentration at 90% Inhibition Dm, Diplodia maydis, growth inhibition vs 2% DMSO control at 48 hours): 0.08 µg/mL (≈ 0.13 µM) |
